Assay results: ChEMBL document CHEMBL5674860, “Optimized Dual-Glo Assay to identify co-culture-induced drug vulnerabilities in 3D CRC models” (2024)

What was measured:
Type in all cases: functional, Homo sapiens
Parameters in all cases: dose or concentration left out as unconfirmed
Colon cancer organoid [1] = experiment: Optimized Dual-Glo assay to identify co-culture induced drug vulnerabilities using donated chemical probes and chemogenomics kinase set in O06 CRC organoid and F06 CAF mono and co-culture. […] Cell viability is reported both mono and co-culture models.
Colon cancer organoid [2] = experiment: Optimized Dual-Glo assay to identify co-culture induced drug vulnerabilities using donated chemical probes and chemogenomics kinase set in O14 CRC organoid and F14 CAF mono and co-culture. […] Cell viability is reported both mono and co-culture models.
Colon cancer organoid [3] = experiment: Optimized Dual-Glo assay to identify co-culture induced drug vulnerabilities using donated chemical probes and chemogenomics kinase set in O20 CRC organoid and F20 CAF mono and co-culture. […] Cell viability is reported both mono and co-culture models.
[4] = Culture type Co-Culture, Transduced with Lucferase2-P2A-EGFP lentivirus
[5] = Culture type Co-Culture, Transduced with Renilla-dsRed lentivirus
[6] = Culture type Mono-Culture, Transduced with Lucferase2-P2A-EGFP lentivirus
[7] = Culture type Mono-Culture, Transduced with Renilla-dsRed lentivirus

Row | Compound | Cell Viability (Colon cancer organoid [1]; [4]) [%] | Cell Viability (Colon cancer organoid [1]; [5]) [%] | Cell Viability (Colon cancer organoid [1]; [6]) [%] | Cell Viability (Colon cancer organoid [1]; [7]) [%] | Cell Viability (Colon cancer organoid [2]; [4]) [%] | Cell Viability (Colon cancer organoid [2]; [5]) [%] | Cell Viability (Colon cancer organoid [2]; [6]) [%] | Cell Viability (Colon cancer organoid [2]; [7]) [%] | Cell Viability (Colon cancer organoid [3]; [4]) [%] | Cell Viability (Colon cancer organoid [3]; [5]) [%] | Cell Viability (Colon cancer organoid [3]; [6]) [%] | Cell Viability (Colon cancer organoid [3]; [7]) [%]
1 | CC1(C)C(N)=Nc2cc(OCCCN3Cc4ccc(OCCc5cn(CC(=O)N6CCC(CCN7CCCC7)CC6)nn5)cc4C3)c(OCC3CC3)cc21 | 85.8179 | 109.54 | 61.6099 | 146.021 | 83.4014 | 129.005 | 107.567 | 119.85 | 94.7334 | 161.052 | 109.897 | 111.947
2 | CC(C)(C#Cc1ccc(NC(=O)COc2ccccc2C(=O)c2ccccc2)c(Cl)c1)C(=O)O [BI 2439] | 98.7582 | 98.9732 | 147.342 | 109.263 | 91.5107 | 105.147 | 118.998 | 103.818 | 147.968 | 100.148 | 97.854 | 121.686
